In assay [1] the test system is freshly cut black walnut wood.
Assay [2] concerns freshly cut sugar maple wood. Put plainly: test strip assay on freshly cut wood, sugar maple.

For `NC(N)=O.OO` [hydrogen peroxide urea adduct], the staining of wood entry in assay [1] (0.5 and 1.0% (w:w) concentration range, FIG. 4) is “visible staining”. Besides, the “staining of wood (experimental spots)” value in assay [1] (test strips 0.5, 1.0, 5.0 and 10% (w:w), FIG. 2) was “visible on top of the background staining”. In addition, the “staining of wood at 10%” value in assay [2] (10% (w:w), FIG. 1) was “chemical breakdown of the staining due to bulk oxidation”. In assay [2] (image analysis of FIG. 3, plot profile, FIG. 5), the “background gray scale values (bg), relative darkness” value is listed as “increase in wood darkening with increasing hydrogen peroxide urea adduct concentrations”. Besides, the “concentration range in which the staining reaction appears saturated” value in assay [2] (test strips 0, 0.5, 1.0, 5.0 and 10% (w:w), FIG. 1) is on record as 0.5-1.0%. For the same compound, the “staining reaction over concentration range” value in assay [2] (test strips 0.05, 0.1, 0.5 and 1.0% (w:w), FIG. 3) is reported as “shows a dose response curve”.

The record behind these values is patent publication US8216644B2, “Controlling wood staining and color during post-harvest processing” (Purdue Research Foundation, priority 2006, dated 2012).
